Test results from patent US20200361895A1, “NOVEL SULFONAMIDE CARBOXAMIDE COMPOUNDS” (Inflazome Limited, priority 2017, published 2020).
Counter-ions that a name gives are not always drawn. Like-named read-outs stand apart in the source and are kept apart here.

Key:
[1] = biological target: T1, NLRP3 (Homo sapiens, UniProt Q96P20); experiment: Human whole blood IL1β release assay (LPS + nigericin, AlphaLisa IL-1β; HWB IC50); type: cell-based; design: Human whole blood in Li-heparin tubes was obtained from healthy donors from a volunteer donor panel; from tissue; host or cells: human whole blood from healthy donors; details: IL-1β release
T1 sequence (Q96P20 whole entry): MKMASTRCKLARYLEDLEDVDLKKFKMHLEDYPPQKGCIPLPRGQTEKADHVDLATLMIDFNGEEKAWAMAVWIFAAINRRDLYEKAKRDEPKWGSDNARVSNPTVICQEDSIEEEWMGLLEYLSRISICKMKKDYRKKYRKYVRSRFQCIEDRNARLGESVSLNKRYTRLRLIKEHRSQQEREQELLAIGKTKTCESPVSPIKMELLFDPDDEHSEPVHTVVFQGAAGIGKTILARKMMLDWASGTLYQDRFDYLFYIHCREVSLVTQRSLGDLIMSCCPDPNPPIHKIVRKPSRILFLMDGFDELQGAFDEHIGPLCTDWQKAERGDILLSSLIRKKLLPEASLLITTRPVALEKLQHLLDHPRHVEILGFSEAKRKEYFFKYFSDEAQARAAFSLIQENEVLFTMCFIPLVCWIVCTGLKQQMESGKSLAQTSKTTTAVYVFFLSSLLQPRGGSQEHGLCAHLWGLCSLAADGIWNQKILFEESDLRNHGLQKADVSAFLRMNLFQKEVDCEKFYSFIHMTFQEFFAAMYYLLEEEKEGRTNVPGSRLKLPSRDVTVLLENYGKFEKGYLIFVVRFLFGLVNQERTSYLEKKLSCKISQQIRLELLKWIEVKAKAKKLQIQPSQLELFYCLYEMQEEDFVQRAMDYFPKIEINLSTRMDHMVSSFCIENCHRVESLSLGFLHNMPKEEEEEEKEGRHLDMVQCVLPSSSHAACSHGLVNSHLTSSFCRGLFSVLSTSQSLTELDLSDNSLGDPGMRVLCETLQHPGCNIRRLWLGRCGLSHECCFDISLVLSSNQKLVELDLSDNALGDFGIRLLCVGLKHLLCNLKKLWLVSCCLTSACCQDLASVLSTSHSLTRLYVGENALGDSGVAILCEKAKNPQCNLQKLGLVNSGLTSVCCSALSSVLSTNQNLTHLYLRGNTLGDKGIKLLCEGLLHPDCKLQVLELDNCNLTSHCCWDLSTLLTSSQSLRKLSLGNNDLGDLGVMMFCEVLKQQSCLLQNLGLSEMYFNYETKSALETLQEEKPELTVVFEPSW
Summary of the method: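 Donor Li-heparin whole blood primed with 1 μg/ml LPS, given compound (8-point half-log series, 10 μM top; DMSO 0.1% final) for 3 h at 37 °C, then nigericin 10 μM final for 1 h. Supernatant IL-1β measured by AlphaLisa; IC50 from 4-parameter variable-slope fit.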

[2] = biological target: T1, NLRP3; experiment: THP-1 cells pyroptosis assay (LPS + nigericin, resazurin readout; THP IC50); type: cell-based; design: Seed THP-1 cells (25,000 cells/well) containing 1.0 μg/ml LPS in 40 μl of RPMI medium; host or cells: THP-1 cells
Summary of the method: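 Human THP-1 cells, 25,000/well in serum-free RPMI with 1 μg/ml LPS, treated 3 hrs at 37° C with compound (8-point half-log, 10 μM top, 0.1% DMSO), then 5 μM nigericin 1 hr. Viability by 100 μM resazurin fluorescence after 1-2 hrs; IC50 by 4-parameter fit.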

[3] = PK protocol, intravenous administration; type: in vivo, male Sprague Dawley rats; details: male, Sprague Dawley, plasma, rat; for Vd: read-out: Vdss
Protocol: (§1) Pharmacokinetic parameters were determined in male Sprague Dawley rats (Charles River, UK, 250-350 g; or Vital River Laboratory Animal Technology Co Ltd, Beijing, China, 7-9 weeks old). Animals were individually housed during the study and maintained under a 12 h light/dark cycle. Animals had free access to food and water.
(§2) For intravenous administration, compounds were formulated as a solution in water or DMSO:PBS [10:90] in 2 mL/kg dosing volume and administered via tail vein. For oral administration, compounds were formulated as a solution in DMSO:water [10:90] in 5 mL/kg dosing volume and administered orally.
(§3) Serial blood samples (about 120-300 μL) were taken from each animal at each of 8 time-points post dose (0.083, 0.25, 0.5, 1, 2, 4, 8 and 24 h) or at each of 12 time-points post dose (0.03, 0.1, 0.17, 0.25, 0.5, 1, 2, 4, 6, 8, 12 and 24 h) or pre-dose and at each of 9 time-points post dose (0.25, 0.5, 1, 2, 4, 6, 8, 12 and 24 h). Samples were held on ice for no longer than 30 minutes before centrifugation (10,000 rpm (8,385 g) for 3 minutes; or 5,696 rpm (3,000 g) for 15 minutes) for plasma generation. Plasma was frozen on dry ice prior to bioanalysis. PK parameters were generated from LC-MS/MS data using Dotmatics or Phoenix WinNonlin 6.3 software.

[4] = PK protocol, oral administration; type: in vivo; details: rat, male Sprague Dawley rats, 3 mg/kg, solution in DMSO:water [10:90], plasma
Protocol: as §1, §2, §3

Structure (SMILES) | IC50 [1] [nM] | IC50 [2] [nM] | AUC ([3]; dose 1 mg/kg) [ng·h/mL] | clearance ([3]; dose 1 mg/kg) [mL/min/kg] | half-life ([3]; dose 1 mg/kg) [h] | Vd ([3]; dose 1 mg/kg) [L/kg] | AUC ([3]; dose 1.69 mg/kg) [ng·h/mL] | clearance ([3]; dose 1.69 mg/kg) [mL/min/kg] | half-life ([3]; dose 1.69 mg/kg) [h] | Vd ([3]; dose 1.69 mg/kg) [L/kg] | AUC ([3]; dose 1.7 mg/kg) [ng·h/mL] | clearance ([3]; dose 1.7 mg/kg) [mL/min/kg] | half-life ([3]; dose 1.7 mg/kg) [h] | Vd ([3]; dose 1.7 mg/kg) [L/kg] | AUC [4] [ng·h/mL] | CL/F [4] [mL/min/kg] | Cmax [4] [ng/mL] | Tmax [4] [h] | half-life [4] [h] | bioavailability [4] [%]
COc1cc(-c2ccc3c(c2NC(=O)NS(=O)(=O)N(C)C2CCN(C)C2)CCC3)ccn1 (stereo not drawn) [Example 122, 3-(N-Methyl-N-(1-methylpyrrolidin-3-yl)sulfamoyl)-1-(5-(2-methoxypyridin-4-yl)-2,3-dihydro-1H-inden-4-yl)urea] | ≤ 500 | ≤ 500 | 1320 | 12.6 | 11.1 | 8.69 |  |  |  |  |  |  |  |  |  |  |  |  |  | 
CC(C)n1ccc(S(=O)(=O)NC(=O)Nc2c(-c3ccncc3)cc(F)c3c2CCC3)n1 [Example 205, N-((7-Fluoro-5-(pyridin-4-yl)-2,3-dihydro-1H-inden-4-yl)carbamoyl)-1-isopropyl-1H-pyrazole-3-sulfonamide] | ≤ 500 | ≤ 500 | 4870 | 3.4 | 2.6 | 0.57 |  |  |  |  |  |  |  |  |  |  |  |  |  | 
COc1cc(-c2ccc3c(c2NC(=O)NS(=O)(=O)c2ccn(C4CC4)n2)CCC3)ccn1 [Example 221, 1-Cyclopropyl-N-((5-(2-methoxypyridin-4-yl)-2,3-dihydro-1H-inden-4-yl)carbamoyl)-1H-pyrazole-3-sulfonamide, sodium salt] | ≤ 500 | ≤ 500 | 65400 | 0.39 | 15 | 0.36 |  |  |  |  |  |  |  |  | 136000 | 0.48 | 7220 | 0.75 | 12 | 83
CC(C)n1ccc(S(=O)(=O)NC(=O)Nc2c(-c3ccnnc3)ccc3c2CCC3)n1 [Example 223, 1-Isopropyl-N-((5-(Pyridazin-4-yl)-2,3-dihydro-1H-inden-4-yl)carbamoyl)-1H-pyrazole-3-sulfonamide, sodium salt] | ≤ 500 | ≤ 500 | 1740 | 9.6 | 0.9 | 0.31 |  |  |  |  |  |  |  |  |  |  |  |  |  | 
COc1cc(-c2ccc3c(c2NC(=O)NS(=O)(=O)c2ccn(C(C)C)n2)CCO3)ccn1 [Example 224, 1-Isopropyl-N-((5-(2-methoxypyridin-4-yl)-2,3-dihydrobenzofuran-4-yl)carbamoyl)-1H-pyrazole-3-sulfonamide, sodium salt] | ≤ 500 | ≤ 500 | 6480 | 2.6 | 3.2 | 0.47 |  |  |  |  |  |  |  |  |  |  |  |  |  | 
CC(C)n1cc(S(=O)(=O)NC(=O)Nc2c(-c3ccnc(C#N)c3)ccc3c2CCC3)nn1 [Example 230, N-((5-(2-Cyanopyridin-4-yl)-2,3-dihydro-1H-inden-4-yl)carbamoyl)-1-isopropyl-1H-1,2,3-triazole-4-sulfonamide, sodium salt] | ≤ 500 | ≤ 500 | 1950 | 8.5 | 1.3 | 0.24 |  |  |  |  |  |  |  |  |  |  |  |  |  | 
COc1cc(-c2ccc3c(c2NC(=O)NS(=O)(=O)c2ccc(CN(C)C)cc2)CCC3)ccn1 [Example 251, 4-((Dimethylamino)methyl)-N-((5-(2-methoxypyridin-4-yl)-2,3-dihydro-1H-inden-4-yl)carbamoyl)benzenesulfonamide, sodium salt] | ≤ 500 | ≤ 500 | 1260 | 13.3 | 2.9 | 2.12 |  |  |  |  |  |  |  |  |  |  |  |  |  | 

Further lines, results first:

IC50 [1] [nM] | IC50 [2] [nM] | AUC ([3]; dose 1 mg/kg) [ng·h/mL] | clearance ([3]; dose 1 mg/kg) [mL/min/kg] | half-life ([3]; dose 1 mg/kg) [h] | Vd ([3]; dose 1 mg/kg) [L/kg] | AUC ([3]; dose 1.69 mg/kg) [ng·h/mL] | clearance ([3]; dose 1.69 mg/kg) [mL/min/kg] | half-life ([3]; dose 1.69 mg/kg) [h] | Vd ([3]; dose 1.69 mg/kg) [L/kg] | AUC ([3]; dose 1.7 mg/kg) [ng·h/mL] | clearance ([3]; dose 1.7 mg/kg) [mL/min/kg] | half-life ([3]; dose 1.7 mg/kg) [h] | Vd ([3]; dose 1.7 mg/kg) [L/kg] | AUC [4] [ng·h/mL] | CL/F [4] [mL/min/kg] | Cmax [4] [ng/mL] | Tmax [4] [h] | half-life [4] [h] | bioavailability [4] [%] | Structure (SMILES)
≤ 500 | ≤ 500 | 300 | 56.3 | 1 | 1.22 |  |  |  |  |  |  |  |  |  |  |  |  |  |  | CC(C)c1cc(F)cc(-c2cccnc2)c1NC(=O)NS(=O)(=O)c1ccn(C[C@@H](C)O)n1 [Example 60, (R)-N-((4-Fluoro-2-isopropyl-6-(pyridin-3-yl)phenyl)carbamoyl)-1-(2-hydroxypropyl)-1H-pyrazole-3-sulfonamide]
≤ 500 | ≤ 500 |  |  |  |  | 1140 | 24.6 | 1.2 | 0.6 |  |  |  |  |  |  |  |  |  |  | COc1cc(-c2ccc3c(c2NC(=O)NS(=O)(=O)c2ccn(CCN(C)C)n2)CCC3)ccn1 [Example 61, 1-(2-(Dimethylamino)ethyl)-N-((5-(2-methoxypyridin-4-yl)-2,3-dihydro-1H-inden-4-yl)carbamoyl)-1H-pyrazole-3-sulfonamide]
≤ 500 | ≤ 500 |  |  |  |  |  |  |  |  | 2710 | 10.5 | 3.8 | 1.23 |  |  |  |  |  |  | CCn1nc(S(=O)(=O)NC(=O)Nc2c(-c3ccnc(OC)c3)ccc3c2CCC3)cc1CN(C)C [Example 64, 5-((Dimethylamino)methyl)-1-ethyl-N-((5-(2-methoxypyridin-4-yl)-2,3-dihydro-1H-inden-4-yl)carbamoyl)-1H-pyrazole-3-sulfonamide]
≤ 500 | ≤ 500 | 896 | 19 | 5.8 | 0.78 |  |  |  |  |  |  |  |  | 504 | 112 | 113 | 0.5 | 5 | 19 | COc1cc(-c2ccc3c(c2NC(=O)NS(=O)(=O)c2ccn(C(C)(C)CN(C)C)n2)CCC3)ccn1 [Example 69, 1-(1-(Dimethylamino)-2-methylpropan-2-yl)-N-((5-(2-methoxypyridin-4-yl)-2,3-dihydro-1H-inden-4-yl)carbamoyl)-1H-pyrazole-3-sulfonamide]
